The source of these data is US20090155209A1, “NOVEL MACROCYCLIC INHIBITORS OF HEPATITIS C VIRUS REPLICATION” (priority 2007, published 2009).

NS3-NS4, sequence (P27958 1027-1657): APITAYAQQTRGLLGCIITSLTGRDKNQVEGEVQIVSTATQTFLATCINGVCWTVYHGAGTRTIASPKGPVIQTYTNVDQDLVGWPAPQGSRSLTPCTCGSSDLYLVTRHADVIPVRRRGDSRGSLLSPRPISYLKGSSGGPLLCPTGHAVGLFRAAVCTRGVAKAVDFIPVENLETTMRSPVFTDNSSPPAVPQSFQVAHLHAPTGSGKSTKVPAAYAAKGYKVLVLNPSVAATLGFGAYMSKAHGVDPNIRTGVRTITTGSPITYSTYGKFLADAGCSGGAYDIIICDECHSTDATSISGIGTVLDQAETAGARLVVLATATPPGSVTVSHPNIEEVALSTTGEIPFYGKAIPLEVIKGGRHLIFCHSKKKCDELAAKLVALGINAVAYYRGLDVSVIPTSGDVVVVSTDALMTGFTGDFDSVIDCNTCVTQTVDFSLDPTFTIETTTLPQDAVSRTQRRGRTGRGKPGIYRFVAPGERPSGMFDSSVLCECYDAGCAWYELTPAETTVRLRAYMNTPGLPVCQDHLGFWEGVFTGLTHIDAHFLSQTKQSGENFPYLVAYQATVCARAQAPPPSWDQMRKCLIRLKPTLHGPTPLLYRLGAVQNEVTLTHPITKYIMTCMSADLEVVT
NS3-NS4, sequence (P27958 1658-1711): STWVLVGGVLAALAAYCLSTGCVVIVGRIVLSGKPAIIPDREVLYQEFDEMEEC

The assay addresses NS3-NS4 (Hepatitis C virus genotype 1a, UniProt P27958). As to the kind of experiment: NS3-NS4 activity, IC50 (Example 37, Table 8). The class given is biochemical.
For the molecule `Cc1ccccc1CS(=O)(=O)NC(=O)[C@@]12C[C@H]1/C=C\CCCCC[C@H](NC(=O)OC(C)(C)C)C(=O)N1C[C@H](OC(=O)N3Cc4cccc(F)c4C3)C[C@H]1C(=O)N2` [Compound 513], the IC50 (usually the concentration that gives 50% inhibition) was less than 100 nM.
For `COc1cccc(CS(=O)(=O)NC(=O)[C@@]23C[C@H]2/C=C\CCCCC[C@H](NC(=O)OC(C)(C)C)C(=O)N2C[C@H](OC(=O)N4Cc5cccc(F)c5C4)C[C@H]2C(=O)N3)c1` [Compound 516], the IC50 is less than 100 nM.
The result for `CC(C)(C)OC(=O)N[C@H]1CCCCC/C=C\[C@@H]2C[C@@]2(C(=O)NS(=O)(=O)c2ccc(Cl)nc2)NC(=O)[C@@H]2C[C@@H](OC(=O)N3Cc4cccc(F)c4C3)CN2C1=O` [Compound 530] reads less than 100 nM.
The result for `CC(C)(C)OC(=O)N[C@H]1CCCCC/C=C\[C@@H]2C[C@@]2(C(=O)NS(=O)(=O)c2ccc(Cl)nc2Cl)NC(=O)[C@@H]2C[C@@H](OC(=O)N3Cc4cccc(F)c4C3)CN2C1=O` [Compound 531] reads less than 100 nM.
To `COc1ccc(S(=O)(=O)NC(=O)[C@@]23C[C@H]2/C=C\CCCCC[C@H](NC(=O)OC(C)(C)C)C(=O)N2C[C@H](OC(=O)N4Cc5cccc(F)c5C4)C[C@H]2C(=O)N3)cn1` [Compound 532] belongs less than 100 nM.
The molecule `CC(C)(C)OC(=O)N[C@H]1CCCCC/C=C\[C@@H]2C[C@@]2(C(=O)NS(=O)(=O)c2ccc(Cl)s2)NC(=O)[C@@H]2C[C@@H](OC(=O)N3Cc4cccc(F)c4C3)CN2C1=O` [Compound 535] returned a half-inhibitory concentration (IC50) of less than 100 nM.
To `Cc1cc(S(=O)(=O)NC(=O)[C@@]23C[C@H]2/C=C\CCCCC[C@H](NC(=O)OC(C)(C)C)C(=O)N2C[C@H](OC(=O)N4Cc5cccc(F)c5C4)C[C@H]2C(=O)N3)sc1C` [Compound 540] belongs less than 100 nM.
The result for `CC(C)(C)OC(=O)N[C@H]1CCCCCCC[C@@H]2C[C@@]2(C(=O)NS(=O)(=O)Cc2ccccc2F)NC(=O)[C@@H]2C[C@@H](OC(=O)N3Cc4cccc(F)c4C3)CN2C1=O` [Compound 607] reads less than 100 nM.
The result for `CC(C)(C)OC(=O)N[C@H]1CCCCCCC[C@@H]2C[C@@]2(C(=O)NS(=O)(=O)Cc2cccc(F)c2)NC(=O)[C@@H]2C[C@@H](OC(=O)N3Cc4cccc(F)c4C3)CN2C1=O` [Compound 608] reads less than 100 nM; that for `CC(C)(C)OC(=O)N[C@H]1CCCCCCC[C@@H]2C[C@@]2(C(=O)NS(=O)(=O)Cc2ccc(F)cc2)NC(=O)[C@@H]2C[C@@H](OC(=O)N3Cc4cccc(F)c4C3)CN2C1=O` [Compound 609], less than 100 nM.
`CC(C)(C)OC(=O)N[C@H]1CCCCCCC[C@@H]2C[C@@]2(C(=O)NS(=O)(=O)Cc2cccc(Cl)c2)NC(=O)[C@@H]2C[C@@H](OC(=O)N3Cc4cccc(F)c4C3)CN2C1=O` [Compound 611] yielded an IC50 of less than 100 nM.
To `CC(C)(C)OC(=O)N[C@H]1CCCCCCC[C@@H]2C[C@@]2(C(=O)NS(=O)(=O)Cc2ccc(Cl)cc2)NC(=O)[C@@H]2C[C@@H](OC(=O)N3Cc4cccc(F)c4C3)CN2C1=O` [Compound 612] belongs less than 100 nM; to `Cc1cccc(CS(=O)(=O)NC(=O)[C@@]23C[C@H]2CCCCCCC[C@H](NC(=O)OC(C)(C)C)C(=O)N2C[C@H](OC(=O)N4Cc5cccc(F)c5C4)C[C@H]2C(=O)N3)c1` [Compound 614], less than 100 nM; to `Cc1ccc(CS(=O)(=O)NC(=O)[C@@]23C[C@H]2CCCCCCC[C@H](NC(=O)OC(C)(C)C)C(=O)N2C[C@H](OC(=O)N4Cc5cccc(F)c5C4)C[C@H]2C(=O)N3)cc1` [Compound 615], less than 100 nM.
The result for `COc1cccc(CS(=O)(=O)NC(=O)[C@@]23C[C@H]2CCCCCCC[C@H](NC(=O)OC(C)(C)C)C(=O)N2C[C@H](OC(=O)N4Cc5cccc(F)c5C4)C[C@H]2C(=O)N3)c1` [Compound 616] reads less than 100 nM.
To `CC(C)(C)OC(=O)N[C@H]1CCCCCCC[C@@H]2C[C@@]2(C(=O)NS(=O)(=O)Cc2ccccc2C(F)(F)F)NC(=O)[C@@H]2C[C@@H](OC(=O)N3Cc4cccc(F)c4C3)CN2C1=O` [Compound 617] belongs less than 100 nM; to `CC(C)(C)OC(=O)N[C@H]1CCCCCCC[C@@H]2C[C@@]2(C(=O)NS(=O)(=O)Cc2cccc(C(F)(F)F)c2)NC(=O)[C@@H]2C[C@@H](OC(=O)N3Cc4cccc(F)c4C3)CN2C1=O` [Compound 618], less than 100 nM; to `CC(C)(C)OC(=O)N[C@H]1CCCCCCC[C@@H]2C[C@@]2(C(=O)NS(=O)(=O)Cc2ccc(C(F)(F)F)cc2)NC(=O)[C@@H]2C[C@@H](OC(=O)N3Cc4cccc(F)c4C3)CN2C1=O` [Compound 619], less than 100 nM.
As for `CC(C)(C)OC(=O)N[C@H]1CCCCCCC[C@@H]2C[C@@]2(C(=O)NS(=O)(=O)Cc2cc(F)ccc2F)NC(=O)[C@@H]2C[C@@H](OC(=O)N3Cc4cccc(F)c4C3)CN2C1=O` [Compound 620], the IC50 was less than 100 nM.
To `CC(C)(C)OC(=O)N[C@H]1CCCCCCC[C@@H]2C[C@@]2(C(=O)NS(=O)(=O)Cc2c(F)cccc2F)NC(=O)[C@@H]2C[C@@H](OC(=O)N3Cc4cccc(F)c4C3)CN2C1=O` [Compound 621] belongs less than 100 nM.
The result for `CC(C)(C)OC(=O)N[C@H]1CCCCCCC[C@@H]2C[C@@]2(C(=O)NS(=O)(=O)Cc2ccc(F)c(F)c2)NC(=O)[C@@H]2C[C@@H](OC(=O)N3Cc4cccc(F)c4C3)CN2C1=O` [Compound 622] reads less than 100 nM.
For `CC(C)(C)OC(=O)N[C@H]1CCCCCCC[C@@H]2C[C@@]2(C(=O)NS(=O)(=O)Cc2cc(F)cc(F)c2)NC(=O)[C@@H]2C[C@@H](OC(=O)N3Cc4cccc(F)c4C3)CN2C1=O` [Compound 623], the IC50 is less than 100 nM.
As for `CC(C)(C)OC(=O)N[C@H]1CCCCCCC[C@@H]2C[C@@]2(C(=O)NS(=O)(=O)Cc2ccc(Cl)cc2Cl)NC(=O)[C@@H]2C[C@@H](OC(=O)N3Cc4cccc(F)c4C3)CN2C1=O` [Compound 624], the IC50 is less than 100 nM.
Molecule `CC(C)(C)OC(=O)N[C@H]1CCCCCCC[C@@H]2C[C@@]2(C(=O)NS(=O)(=O)Cc2cc(Cl)ccc2Cl)NC(=O)[C@@H]2C[C@@H](OC(=O)N3Cc4cccc(F)c4C3)CN2C1=O` [Compound 625] yielded an IC50 of less than 100 nM.
As to `CC(C)(C)OC(=O)N[C@H]1CCCCCCC[C@@H]2C[C@@]2(C(=O)NS(=O)(=O)Cc2c(Cl)cccc2Cl)NC(=O)[C@@H]2C[C@@H](OC(=O)N3Cc4cccc(F)c4C3)CN2C1=O` [Compound 626], the IC50 was less than 100 nM.
To `CC(C)(C)OC(=O)N[C@H]1CCCCCCC[C@@H]2C[C@@]2(C(=O)NS(=O)(=O)Cc2ccc(Cl)c(Cl)c2)NC(=O)[C@@H]2C[C@@H](OC(=O)N3Cc4cccc(F)c4C3)CN2C1=O` [Compound 627] belongs less than 100 nM; to `Cc1ccc(CS(=O)(=O)NC(=O)[C@@]23C[C@H]2CCCCCCC[C@H](NC(=O)OC(C)(C)C)C(=O)N2C[C@H](OC(=O)N4Cc5cccc(F)c5C4)C[C@H]2C(=O)N3)c(C)c1` [Compound 628], less than 100 nM; to `Cc1ccc(CS(=O)(=O)NC(=O)[C@@]23C[C@H]2CCCCCCC[C@H](NC(=O)OC(C)(C)C)C(=O)N2C[C@H](OC(=O)N4Cc5cccc(F)c5C4)C[C@H]2C(=O)N3)cc1C` [Compound 630], less than 100 nM.
The result for `COc1cccc(CS(=O)(=O)NC(=O)[C@@]23C[C@H]2CCCCCCC[C@H](NC(=O)OC(C)(C)C)C(=O)N2C[C@H](OC(=O)N4Cc5cccc(F)c5C4)C[C@H]2C(=O)N3)c1OC` [Compound 631] reads less than 100 nM.
The result for `CC(C)(C)OC(=O)N[C@H]1CCCCCCC[C@@H]2C[C@@]2(C(=O)NS(=O)(=O)Cc2ccc(C(F)(F)F)cc2C(F)(F)F)NC(=O)[C@@H]2C[C@@H](OC(=O)N3Cc4cccc(F)c4C3)CN2C1=O` [Compound 633] reads less than 100 nM.
`CC(C)(C)OC(=O)N[C@H]1CCCCCCC[C@@H]2C[C@@]2(C(=O)NS(=O)(=O)Cc2cc(C(F)(F)F)cc(C(F)(F)F)c2)NC(=O)[C@@H]2C[C@@H](OC(=O)N3Cc4cccc(F)c4C3)CN2C1=O` [Compound 634] registered an IC50 of less than 100 nM.
The result for `CC(C)(C)OC(=O)N[C@H]1CCCCCCC[C@@H]2C[C@@]2(C(=O)NS(=O)(=O)c2cccnc2Cl)NC(=O)[C@@H]2C[C@@H](OC(=O)N3Cc4cccc(F)c4C3)CN2C1=O` [Compound 635] reads less than 100 nM; that for `CC(C)(C)OC(=O)N[C@H]1CCCCCCC[C@@H]2C[C@@]2(C(=O)NS(=O)(=O)c2ccc(Cl)nc2)NC(=O)[C@@H]2C[C@@H](OC(=O)N3Cc4cccc(F)c4C3)CN2C1=O` [Compound 636], less than 100 nM; that for `Cc1cc(S(=O)(=O)NC(=O)[C@@]23C[C@H]2CCCCCCC[C@H](NC(=O)OC(C)(C)C)C(=O)N2C[C@H](OC(=O)N4Cc5cccc(F)c5C4)C[C@H]2C(=O)N3)oc1C` [Compound 640], less than 100 nM.
The result for `CC(C)(C)OC(=O)N[C@H]1CCCCCCC[C@@H]2C[C@@]2(C(=O)NS(=O)(=O)c2ccc(Cl)s2)NC(=O)[C@@H]2C[C@@H](OC(=O)N3Cc4cccc(F)c4C3)CN2C1=O` [Compound 641] reads less than 100 nM.
To `CC(C)(C)OC(=O)N[C@H]1CCCCCCC[C@@H]2C[C@@]2(C(=O)NS(=O)(=O)c2cc(Cl)cs2)NC(=O)[C@@H]2C[C@@H](OC(=O)N3Cc4cccc(F)c4C3)CN2C1=O` [Compound 642] belongs less than 100 nM.
`CC(C)(C)OC(=O)N[C@H]1CCCCCCC[C@@H]2C[C@@]2(C(=O)NS(=O)(=O)c2cc(Cl)c(Cl)s2)NC(=O)[C@@H]2C[C@@H](OC(=O)N3Cc4cccc(F)c4C3)CN2C1=O` [Compound 643] registered an IC50 of less than 100 nM.
`Cc1ccc(S(=O)(=O)NC(=O)[C@@]23C[C@H]2CCCCCCC[C@H](NC(=O)OC(C)(C)C)C(=O)N2C[C@H](OC(=O)N4Cc5cccc(F)c5C4)C[C@H]2C(=O)N3)s1` [Compound 644]: the half-maximal inhibitory concentration (IC50) was less than 100 nM.
To `Cc1cc(S(=O)(=O)NC(=O)[C@@]23C[C@H]2CCCCCCC[C@H](NC(=O)OC(C)(C)C)C(=O)N2C[C@H](OC(=O)N4Cc5cccc(F)c5C4)C[C@H]2C(=O)N3)sc1C` [Compound 646] belongs less than 100 nM; to `COc1csc(S(=O)(=O)NC(=O)[C@@]23C[C@H]2CCCCCCC[C@H](NOC(=O)C(C)(C)C)C(=O)N2C[C@H](OC(=O)N4Cc5cccc(F)c5C4)C[C@H]2C(=O)N3)c1` [Compound 647], less than 100 nM; to `Cc1ccccc1ONC(=O)[C@@]12C[C@H]1/C=C\CCCCC[C@H](NC(=O)OC(C)(C)C)C(=O)N1C[C@H](OC(=O)N3Cc4cccc(F)c4C3)C[C@H]1C(=O)N2` [Compound 701], less than 100 nM.
